We go through 33 molecules from patent US11479528B2, “Heat shock protein 90 inhibitors” (TAIPEI MEDICAL UNIVERSITY, priority 2017, dated 2022).

Where two headings read alike, the source gives them in different places.

One test deals with lung A549. The test can be described thus: Sulforhodamine B (SRB) assay, lung A549. The class given is cell-based, human. As for the experimental part: Human cancer cells were purchased from the American Type Culture Collection (Manassas, Va., USA).
Cells were seeded in 96-well plates in medium with 5% fetal bovine serum. […] Unbound sulforhodamine B was washed out by 1% acetic acid and sulforhodamine B-bound cells were solubilized with 10 mmol/L Trizma base. […] Using the following absorbance measurements, such as time zero (T0), control growth (C), and cell growth in the presence of the drug (Tx), the percentage growth was calculated at each of the compound concentrations levels. Percentage growth inhibition was calculated as […].
(In general: In SRB staining, fixed cells bind dye roughly in proportion to their protein.)

Another test relates to colorectal HCT116. Description: Sulforhodamine B (SRB) assay, colorectal HCT116. In kind it is cell-based. The conditions noted are these: Homo sapiens, HCT-116, SRB. As for the experimental part: (§1) Human cancer cells were purchased from the American Type Culture Collection (Manassas, Va., USA). These cell lines were cultured in RPMI 1640 medium or DMEM supplemented with 10% FBS (v/v) and pencillin (100 U/mL)/streptomycin (100 ug/mL)/amphotericin B (0.25 ug/mL). Cultures were maintained at 37° C. in a humidified atmosphere of 5% CO2/95% air.
(§2) Cells were seeded in 96-well plates in medium with 5% fetal bovine serum. After 24 h, cells were fixed with 10% trichloroacetic acid to represent cell population at the time of drug addition (T0). After additional incubation of DMSO or drugs for 48 h, cells were fixed with 10% trichloroacetic acid and sulforhodamine B at 0.4% (w/v) in 1% acetic acid was added to stain cells. Unbound sulforhodamine B was washed out by 1% acetic acid and sulforhodamine B-bound cells were solubilized with 10 mmol/L Trizma base. The absorbance was read at a wavelength of 515 nm. Using the following absorbance measurements, such as time zero (T0), control growth (C), and cell growth in the presence of the drug (Tx), the percentage growth was calculated at each of the compound concentrations levels. Percentage growth inhibition was calculated as […].

A further test has as its system prostate PC3. Description: Sulforhodamine B (SRB) assay, prostate PC3. The class given is cell-based. The conditions noted are these: Homo sapiens, Table 1, 48 h. As for the experimental part: as §1, §2
[1] abbreviates: Homo sapiens, A549, 48 h, read-out: GI50 Lung A549.
[2] abbreviates: Table 1, 48 h, read-out: GI50 Colorectal HCT116.
Setting [3] is: Homo sapiens, A549, Table 1, SRB, 48 h, read-out: GI50 Lung A549.

Broadly, the GI50 is the concentration at which growth is held to half of that of the control. For the molecule `CC(C)c1cc(C(=O)N(c2ccc3ccn(C)c3c2)C(C)C)c(O)cc1O` [Compound 21f, 2,4-dihydroxy-N,5-diisopropyl-N-(1-methyl-1H-indol-6-yl)benzamide], the GI50 with lung A549 (setting [1]) amounted to 840 ± 40 nM.

Consider `CC(C)c1cc(C(=O)N(C)c2cnc3c(cnn3C)c2)c(O)cc1O` [Compound 26c, 2,4-dihydroxy-5-isopropyl-N-methyl-N-(1-methyl-1H-pyrazolo[3,4-b]pyridin-5-yl)benzamide], for which the GI50 in the test on colorectal HCT116 (setting [2]) was found to be 1150 ± 220 nM; with lung A549 (setting [3]) it was 700 ± 40 nM.

As to `CCN(C(=O)c1cc(C(C)C)c(O)cc1O)c1cccnc1OCc1ccccc1` [Compound 34b, N-(2-(benzyloxy)pyridin-3-yl)-N-ethyl-2,4-dihydroxy-5-isopropylbenzamide], the GI50 in the test with lung A549 (setting [3]) came to 210 ± 10 nM.

As for `CC(C)c1cc(C(=O)N(C)c2ccc3c(c2)CCN3)c(O)cc1O` [Compound 23b, 2,4-dihydroxy-N-(indolin-5-yl)-5-isopropyl-N-methylbenzamide], the GI50 in the test with colorectal HCT116 (setting [2]) amounted to 5530 ± 380 nM; in the test on lung A549 (setting [3]), 2820 ± 30 nM.

In the case of `CC(C)c1cc(C(=O)Nc2ccc3ccn(C)c3c2)c(O)cc1O` [Compound 21b, 2,4-dihydroxy-5-isopropyl-N-(1-methyl-1H-indol-6-yl)benzamide], the GI50 in the test with lung A549 (setting [1]) is more than 10000 nM.

In the case of `CCCN(C(=O)c1cc(C(C)C)c(O)cc1O)c1cccc2ccn(C)c12` [Compound 22d, 2,4-dihydroxy-5-isopropyl-N-(1-methyl-1H-indol-7-yl)-N-propylbenzamide], in the test with lung A549 (setting [1]), the concentration for 50% growth inhibition (GI50) is more than 10000 nM.

Take `CCCN(C(=O)c1cc(C(C)C)c(O)cc1O)c1cnc2c(ccn2C)c1` [Compound 24e, 2,4-dihydroxy-5-isopropyl-N-(1-methyl-1H-pyrrolo[2,3-b]pyridin-5-yl)-N-propylbenzamide]: the GI50 is 3760 ± 230 nM in the test on colorectal HCT116 (setting [2]) and 2100 ± 170 nM with lung A549 (setting [3]).

As to `CC(C)c1cc(C(=O)Nc2cnc3c(cnn3C)c2)c(O)cc1O` [Compound 26b, 2,4-dihydroxy-5-isopropyl-N-(1-methyl-1H-pyrazolo[3,4-b]pyridin-5-yl)benzamide], the GI50 in the test on colorectal HCT116 (setting [2]) and with lung A549 (setting [3]) was more than 10000 nM in each case.

As to `CCN(C(=O)c1cc(C(C)C)c(O)cc1O)c1ccc2ccn(C)c2c1` [Compound 21d, N-ethyl-2,4-dihydroxy-5-isopropyl-N-(1-methyl-1H-indol-6-yl)benzamide], in the test with lung A549 (setting [1]), the GI50 was 90 ± 10 nM.

`CC(C)c1cc(C(=O)Nc2ccc3cc[nH]c3c2)c(O)cc1O` [Compound 21a, 2,4-dihydroxy-N-(1H-indol-6-yl)-5-isopropylbenzamide]: in the test with lung A549 (setting [1]), the GI50 was 300 ± 30 nM.

`CC(C)c1cc(C(=O)N(c2cnc3c(ccn3C)c2)C(C)C)c(O)cc1O` [Compound 24f, 2,4-dihydroxy-N, 5-diisopropyl-N-(1-methyl-1H-pyrrolo[2,3-b]pyridin-5-yl)benzamide]: the results for the GI50 with colorectal HCT116 (setting [2]) and in the test with lung A549 (setting [3]) were 3140 ± 870 nM and 2060 ± 120 nM, respectively.

As to `CC(C)c1cc(C(=O)N(C)c2cccc3ccn(C)c23)c(O)cc1O` [Compound 22b, 2,4-dihydroxy-5-isopropyl-N-methyl-N-(1-methyl-1H-indol-7-yl)benzamide], the GI50 in the test on lung A549 (setting [1]) is more than 10000 nM.

Take `CC(C)c1cc(C(=O)N(c2cccc3ccn(C)c23)C(C)C)c(O)cc1O` [Compound 22e, 2,4-dihydroxy-N,5-diisopropyl-N-(1-methyl-1H-indol-7-yl)benzamide]: in the test with lung A549 (setting [1]), the GI50 was more than 10000 nM.

Regarding `CC(C)c1cc(C(=O)Nc2cccc3cccnc23)c(O)cc1O` [Compound 31a, 2,4-dihydroxy-5-isopropyl-N-(quinolin-8-yl)benzamide], the GI50 in the test on lung A549 (setting [3]) and with prostate PC3 was more than 10000 nM in each case.

For the molecule `CC(C)c1cc(C(=O)N(C)c2cnc3ccccc3c2)c(O)cc1O` [Compound 28b, 2,4-dihydroxy-5-isopropyl-N-methyl-N-(quinolin-3-yl)benzamide], the GI50 with lung A549 (setting [3]) and in the test with prostate PC3 was more than 10000 nM in each case.

With `CC(C)c1cc(C(=O)Nc2cccc3ncccc23)c(O)cc1O` [Compound 29a, 2,4-dihydroxy-5-isopropyl-N-(quinolin-5-yl)benzamide], the GI50 in the test with lung A549 (setting [3]) and in the test on prostate PC3 was more than 10000 nM throughout.

For the molecule `CC(C)c1cc(C(=O)N(C)c2ccc3c(cnn3C)c2)c(O)cc1O` [Compound 25b, 2,4-dihydroxy-5-isopropyl-N-methyl-N-(1-methyl-1H-indazol-5-yl)benzamide], the GI50 is 110 ± 10 nM in the test on lung A549 (setting [3]) and 100 ± 10 nM in the test with prostate PC3.

As for `CCN(C(=O)c1cc(C(C)C)c(O)cc1O)c1cccnc1C` [Compound 34a, N-ethyl-2,4-dihydroxy-5-isopropyl-N-(2-methylpyridin-3-yl)benzamide], the GI50 with lung A549 (Table 1, SRB, 48 h, read-out: GI50 Lung A549) is more than 10000 nM.

Turning to `CCCN(C(=O)c1cc(C(C)C)c(O)cc1O)c1cnc2c(cnn2C)c1` [Compound 26e, 2,4-dihydroxy-5-isopropyl-N-(1-methyl-1H-pyrazolo[3,4-b]pyridin-5-yl)-N-propylbenzamide], the figures for the GI50 in the test with colorectal HCT116 (setting [2]) and with lung A549 (setting [3]) were 8290 ± 290 nM and 4210 ± 220 nM, respectively.

Regarding `CCN(C(=O)c1cc(C(C)C)c(O)cc1O)c1cnc2c(cnn2C)c1` [Compound 26d, N-ethyl-2,4-dihydroxy-5-isopropyl-N-(1-methyl-1H-pyrazolo[3,4-b]pyridin-5-yl)benzamide], the GI50 is 710 ± 60 nM in the test with colorectal HCT116 (setting [2]) and 380 ± 20 nM in the test with lung A549 (setting [3]).

`CCCN(C(=O)c1cc(C(C)C)c(O)cc1O)c1ccc2ccn(C)c2c1` [Compound 21e, 2,4-dihydroxy-5-isopropyl-N-(1-methyl-1H-indol-6-yl)-N-propylbenzamide]: the GI50 in the test with lung A549 (setting [1]) was 1620 ± 120 nM.

On to `CC(C)c1cc(C(=O)N(C)c2cnc3c(ccn3C)c2)c(O)cc1O` [Compound 24c, 2,4-dihydroxy-5-isopropyl-N-methyl-N-(1-methyl-1H-pyrrolo[2,3-b]pyridin-5-yl)benzamide], for which the GI50 with colorectal HCT116 (setting [2]) was 710 ± 80 nM; in the test on lung A549 (setting [3]) it was 270 ± 30 nM.

`CC(C)c1cc(C(=O)Nc2cccc3ccn(C)c23)c(O)cc1O` [Compound 22a, 2,4-dihydroxy-5-isopropyl-N-(1-methyl-1H-indol-7-yl)benzamide]: the GI50 in the test with lung A549 (setting [1]) is more than 10000 nM.

In the case of `CC(C)c1cc(C(=O)N(C)c2ccc3ncccc3c2)c(O)cc1O` [Compound 30b, 2,4-dihydroxy-5-isopropyl-N-methyl-N-(quinolin-6-yl)benzamide], the GI50 in the test on lung A549 (setting [3]) and with prostate PC3 was more than 10000 nM in each case.

With `CC(C)c1cc(C(=O)Nc2ccc3ncccc3c2)c(O)cc1O` [Compound 30a, 2,4-dihydroxy-5-isopropyl-N-(quinolin-6-yl)benzamide], the GI50 in the test with lung A549 (setting [3]) and in the test with prostate PC3 was more than 10000 nM in each case.

Consider `Cc1cc(NC(=O)c2cc(C(C)C)c(O)cc2O)c2ccccc2n1` [Compound 32a, 2,4-dihydroxy-5-isopropyl-N-(2-methylquinolin-4-yl)benzamide], for which the GI50 in the test with lung A549 (setting [3]) and in the test with prostate PC3 was more than 10000 nM in each case.

Consider `CCN(C(=O)c1cc(C(C)C)c(O)cc1O)c1cccc2ccn(C)c12` [Compound 22c, N-ethyl-2,4-dihydroxy-5-isopropyl-N-(1-methyl-1H-indol-7-yl)benzamide], for which the GI50 in the test on lung A549 (setting [1]) was more than 10000 nM.

As for `C=CCNC1=C2C[C@@H](C)C[C@H](OC)[C@H](O)[C@@H](C)/C=C(\C)[C@H](OC(N)=O)[C@@H](OC)/C=C\C=C(/C)C(=O)NC(=CC1=O)C2=O` [Compound 17-AAG, 17-allylamino-17-desmethoxygeldanamycin, reference compound], the GI50 in the test with colorectal HCT116 (Table 2, read-out: HCT116 GI50) amounted to 340 ± 60 nM; with lung A549 (Homo sapiens, A549, Table 2, SRB, read-out: A549 GI50), 80 ± 10 nM.

As for `CC(C)c1cc(C(=O)N(C)c2ccc3ccn(C)c3c2)c(O)cc1O` [Compound 21c, 2,4-dihydroxy-5-isopropyl-N-methyl-N-(1-methyl-1H-indol-6-yl)benzamide], the GI50 with lung A549 (setting [1]) came out at 100 ± 20 nM.

Consider `CCN(C(=O)c1cc(C(C)C)c(O)cc1O)c1cnc2c(ccn2C)c1` [Compound 24d, N-ethyl-2,4-dihydroxy-5-isopropyl-N-(1-methyl-1H-pyrrolo[2,3-b]pyridin-5-yl)benzamide], for which the GI50 in the test with colorectal HCT116 (setting [2]) was 440 ± 190 nM; in the test on lung A549 (setting [3]) it was 230 ± 30 nM.

Regarding `CC(C)c1cc(C(=O)Nc2cnc3ccccc3c2)c(O)cc1O` [Compound 28a, 2,4-dihydroxy-5-isopropyl-N-(quinolin-3-yl)benzamide], the GI50 with lung A549 (setting [3]) and in the test with prostate PC3 was more than 10000 nM throughout.

`CCN(C(=O)c1cc(C(C)C)c(O)cc1O)c1cnc2ccccc2c1` [Compound 28c, N-ethyl-2,4-dihydroxy-5-isopropyl-N-(quinolin-3-yl)benzamide]: in the test with lung A549 (setting [3]), the GI50 is 280 ± 50 nM.

For the molecule `CC(C)c1cc(C(=O)N(c2cnc3c(cnn3C)c2)C(C)C)c(O)cc1O` [Compound 26f, 2,4-dihydroxy-N, 5-diisopropyl-N-(1-methyl-1H-pyrazolo[3,4-b]pyridin-5-yl)benzamide], the GI50 in the test with colorectal HCT116 (setting [2]) stood at 6860 ± 480 nM; in the test on lung A549 (setting [3]) it was 3640 ± 50 nM.
